Experimental data taken from paper PMC8474116, “Discovery of Novel Acetamide-Based Heme Oxygenase-1 Inhibitors with Potent In Vitro Antiproliferative Activity” (Journal of Medicinal Chemistry, 2021).

Key:
HO-1 [1] = target: T1, HO-1 (Rattus norvegicus, UniProt P06762); experiment: HO-1 enzymatic activity, rat spleen microsomal fraction (bilirubin formation); assay type: biochemical; conditions: for HO-1 inhibitory activity (in words) / IC50: rat spleen microsomal fraction; for IC50: mean of triplicate ± SD; for SI (HO-2/HO-1): ratio of HO-2 and HO-1 IC50
T1 construct: selected to use the most native (i.e., closest to in vivo) forms of HO-1 and HO-2; from tissue; host or cells: rat spleen (male Sprague-Dawley), microsomal fraction
T1 sequence (P06762 1-289): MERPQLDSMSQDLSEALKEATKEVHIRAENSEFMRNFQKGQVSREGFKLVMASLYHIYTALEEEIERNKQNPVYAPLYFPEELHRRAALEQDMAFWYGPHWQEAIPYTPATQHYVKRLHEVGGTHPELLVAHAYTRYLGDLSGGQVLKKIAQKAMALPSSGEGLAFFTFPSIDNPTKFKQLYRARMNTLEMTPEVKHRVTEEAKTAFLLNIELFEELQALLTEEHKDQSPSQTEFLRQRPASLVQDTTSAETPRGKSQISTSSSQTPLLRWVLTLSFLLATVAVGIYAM
Experimental: (§1) HO-1 and HO-2 were obtained, respectively, from the rat spleen and brain as the microsomal fraction prepared by differential centrifugation; the dominance of HO-1 protein in the rat spleen and HO-2 in the rat brain has been well documented.[24] These particular microsomal preparations were selected to use the most native (i.e., closest to in vivo) forms of HO-1 and HO-2. Spleen and brain (Sprague-Dawley rats) microsomal fractions were prepared according to the procedure outlined by Ryter et al.[2] The experiments reported in the present paper complied with the current Italian law and met the guidelines of the Institutional Animal Care and Use Committee of the Ministry of Health (Directorate General for Animal Health and Veterinary Medicines, Italy) “Dosing of enzymatic activities in rat microsomes” (2018–2022), project code 02769.N.VLY. The experiments were performed in male Sprague-Dawley albino rats (150 g body weight and age 45 d). They had free access to water and were kept at room temperature with a natural photoperiod (12 h light–12 h dark cycle). For measuring HO-1 and HO-2 activities, each rat was sacrificed and their spleen and brain were excised and weighed. A homogenate (15%, w/v) of spleens and brains pooled from four rats was prepared in ice-cold HO-homogenizing buffer (50 mM Tris buffer, pH 7.4, containing 0.25 M sucrose) using a Potter–Elvehjem homogenizing system with a Teflon pestle. The microsomal fraction of rat spleen and brain homogenate was obtained by centrifugation at 10 000g for 20 min at 4 °C, followed by centrifugation of the supernatant at 100 000g for 60 min at 4 °C. The 100 000g pellet (microsomes) was resuspended in 100 mM of potassium phosphate buffer, pH 7.8, containing 2 mM MgCl2 with a Potter–Elvehjem homogenizing system. The rat spleen and brain microsomal fractions were divided into equal aliquots, placed into microcentrifuge tubes, and stored at −80 °C for up to 2 months.
(§2) Liver cytosol has been used as a source of biliverdin reductase. Rat liver was perfused through the hepatic portal vein with cold 0.9% NaCl; then, it was cut and flushed with 2 × 20 mL of ice-cold PBS to remove all of the blood. Liver tissue was homogenized in 3 volumes of a solution containing 1.15% KCl w/v and Tris buffer 20 mM, pH 7.8 on ice. Homogenates were centrifuged at 10 000g for 20 min at 4 °C. The supernatant was decanted and centrifuged at 100 000g for 1 h at 4 °C to sediment the microsomes. The 100 000g supernatant was saved and then stored in small amounts at −80 °C after its protein concentration was measured.
(§3) The HO-1 and HO-2 activities were determined by measuring the bilirubin formation using the difference in absorbance at 464–530 nm, as described by Ryter et al.[2] Reaction mixtures (500 μL) consisted of 20 mM of Tris–HCl, pH 7.4, (1 mg/mL) microsomal extract, 0.5–2 mg/mL of biliverdin reductase, 1 mM of NADPH, 2 mM of glucose 6-phosphate (G6P), 1 U of G6P dehydrogenase, 25 μM of hemin, and 10 μL of DMSO (or the same volume of DMSO solution of test compounds to a final concentration of 100, 10, and 1 μM). Incubations were carried out for 60 min at 37 °C in a circulating water bath in the dark. Reactions were stopped by adding the same volume of chloroform. After recovering the chloroform phase, the amount of bilirubin formed was measured with a double-beam spectrophotometer as OD464–530 nm (extinction coefficient, 40 mM/cm^–1 for bilirubin). One unit of the enzyme was defined as the amount of enzyme catalyzing the formation of 1 nmol of bilirubin/mg protein/h.

U87MG cells = experiment: MTT cell viability assay, U87MG; assay type: cell-based, human; conditions: 48 h, at both concentrations 1 and 10 μM
Experimental: (§4) Experiments were performed on human GBM cell lines U87MG (ATCCC number #HTB-14) and A172 (ATCCC #CRL-1620) on DU145 (ATCC HTB-81) and human lung adenocarcinoma A549 (ATCC CCL-185-LUC2). All cell lines were obtained from the American Type Culture Collection (ATCC, Rockville, MD). Cells were grown in Dulbecco’s modified Eagle’s medium (DMEM) supplemented with 10% of heat-inactivated fetal bovine serum (FBS), 100 U/mL of penicillin, and 100 μg/mL of streptomycin (Sigma-Aldrich, Steinheim, Germany). Cells were incubated at 37 °C in a humidified atmosphere with 5% CO2.
(§5) The effect of selected compounds 7i and 7l–p on cell viability was assessed by performing an MTT assay. Cells were seeded into 96-well plates at a density of 7 × 10^3 cells/well in 100 μL of culture medium. After 24 h, cells were treated with selected compounds at three different concentrations (1 μM, 10 μM, and 50 μM) for 48 h. Following treatments, 0.5 mg/mL of 3-[4,5-dimethylthiazol-2-yl]-2,5-diphenyltetrazolium bromide (MTT) (Sigma-Aldrich) was added to each well and incubated for 4 h at 37 °C. Finally, dimethyl-sulfoxide (DMSO) was used to dissolve formazan salts, and absorbance was measured at 570 nm in a microplate reader (Biotek Synergy-HT). Eight replicate wells were used for each group.

A172 cells = experiment: MTT cell viability assay, A172; assay type: cell-based, human; conditions: 48 h
Experimental: as §4, §5

A549 cells = experiment: MTT cell viability assay, A549; assay type: cell-based, human; conditions: 48 h, 10 μM
Experimental: as §4, §5

HO-2 = target: T2, HO-2 (Rattus norvegicus, UniProt P23711); experiment: HO-2 enzymatic activity, rat brain microsomal fraction (bilirubin formation); assay type: biochemical; conditions: mean of triplicate ± SD
T2 construct: selected to use the most native (i.e., closest to in vivo) forms of HO-1 and HO-2; from tissue; host or cells: rat brain (male Sprague-Dawley), microsomal fraction
T2 sequence (P23711 1-315): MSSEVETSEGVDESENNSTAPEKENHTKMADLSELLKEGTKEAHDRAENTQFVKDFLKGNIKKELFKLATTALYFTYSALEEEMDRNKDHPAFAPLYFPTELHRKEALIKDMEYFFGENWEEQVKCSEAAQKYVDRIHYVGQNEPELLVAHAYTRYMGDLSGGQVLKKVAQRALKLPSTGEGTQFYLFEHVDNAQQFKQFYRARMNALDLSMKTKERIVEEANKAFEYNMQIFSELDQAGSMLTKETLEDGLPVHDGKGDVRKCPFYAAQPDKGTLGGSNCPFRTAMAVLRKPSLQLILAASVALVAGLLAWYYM
Experimental: as §1, §2, §3

DU145 cells = experiment: MTT cell viability assay, DU145; assay type: cell-based; conditions: 48 h, 1 μM and 10 μM
Experimental: as §4, §5

HO-1 [2] = experiment: HO-1 protein expression by Western blot, A172; assay type: cell-based, human; conditions: A172, 10 μM, 48 h
Experimental: Proteins were extracted from total cell lysate, as previously described.[61] Briefly, cell lines were added to a buffer containing 20 mM Tris (pH 7.4), 2 mM EDTA, 0.5 mM EGTA, 50 mM mercaptoethanol, and […] sucrose supplemented with phosphatase and protease inhibitor cocktails (Roche Diagnostics, Monza, Italy). Subsequently, protein samples were sonicated twice for 20′ by using an ultrasonic probe, followed by centrifugation at 10 000g for 10 min at 4 °C. Sample proteins (30 μg) were diluted in 4X NuPage LDS sample buffer (Invitrogen, NP0007), heated at 80 °C for 5 min, and then separated on a Biorad Criterion XT 4–15% Bis–Tris gel (BIO-RAD) by electrophoresis and then transferred to a PVDF membrane (BIO-RAD). Blots were blocked using the Odyssey Blocking Buffer (LI-COR Biosciences) and probed with appropriate antibodies: HO-1 antibody (GeneTex GTX101147), goat polyclonal anti-VEGF (cat. no. sc-1836, Santa Cruz Biotechnology), and rabbit polyclonal anti-β-tubulin (cat n.sc-9104, Santa Cruz Biotechnology) and β-actin antibody (GeneTex GTX109639).
The secondary antibodies goat antirabbit (Odyssey, #926-32211; Odyssey #926-68021) and donkey antigoat IRDye 800CW (cat #926-32214; Li-Cor Biosciences) were used at 1:7000. Blots were scanned, and densitometric analysis was performed with the Odyssey Infrared Imaging System. Values were normalized to β-actin and to β-tubulin.

Compound | IC50 (HO-1 [1]) [µM] | melting point [°C] | also measured
CC(=O)N(CCCn1ccnc1)Cc1ccccc1 [11a, N-(3-(1H-Imidazol-1-yl)propyl)-N-benzylacetamide] | 224 ± 8.1 |  | HO-1 inhibitory activity (in words) (HO-1 [1]): almost inactive
CN(C(=O)Cn1ccnc1)c1ccc(I)cc1 [7e, 2-(1H-Imidazol-1-yl)-N-(4-iodophenyl)-N-methylacetamide] | 96.1 ± 1.44 |  | 
O=C(Cn1ccnc1)N(Cc1ccccc1)Cc1ccccc1 [7h, N,N-Dibenzyl-2-(1H-imidazol-1-yl)acetamide] | 64.8 ± 1.56 | 99 to 102 | 
O=C(Cc1ccccc1)N(CCCn1ccnc1)Cc1ccccc1 [11c, N-(3-(1H-Imidazol-1-yl)propyl)-N-benzyl-2-phenylacetamide] | 32 ± 1.48 |  | HO-1 inhibitory activity (in words) (HO-1 [1]): comparable to the hit compound 4
O=C(Cn1ccnc1)Nc1cccc(Br)c1 [7c, N-(3-Bromophenyl)-2-(1H-imidazol-1-yl)acetamide] | 35.7 ± 1.2 | 158 to 162 | 
CN(C(=O)Cn1ccnc1)C(c1ccccc1)C1CCCCC1 (stereo not drawn) [7k, N-(Cyclohexyl(phenyl)methyl)-2-(1H-imidazol-1-yl)-N-methylacetamide] | 26.8 ± 1.61 | 130 to 133 | fold less potent than compound 7i (HO-1) (HO-1 [1]): 30 fold
CN(C(=O)Cn1ccnc1)C(c1ccccc1)c1ccc(OCc2ccc(Br)cc2)cc1 (stereo not drawn) [7p, N-((4-((4-Bromobenzyl)oxy)phenyl)(phenyl)methyl)-2-(1H-imidazol-1-yl)-N-methylacetamide] | 8 ± 0.39 | 120 to 121 | cell viability reduction (U87MG cells): around 20%; cell viability reduction (in words) (A172 cells; 10 μM): milder activity; cell viability reduction (in words) (A172 cells; 50 μM): only at 50 μM; cell viability reduction (in words) (A549 cells): weak effect; fold less potent than 7o (HO-1) (HO-1 [1]): about 6.5 fold; fold less potent than compound 7i (HO-1) (HO-1 [1]): ~9 fold; fold more selective for the inducible isoform (HO-1 over HO-2) (HO-1 [1]): 3 fold; SI (HO-2/HO-1) (HO-1 [1]): 3.1; IC50 (HO-2): 24.71 ± 0.14 µM; cell viability reduction (in words) (DU145 cells): had efficacies
O=C(Cn1ccnc1)Nc1ccccc1 [7a] | 110 ± 3.1 |  | 
O=C(c1ccccc1)N(CCCn1ccnc1)Cc1ccccc1 [11b, N-(3-(1H-Imidazol-1-yl)propyl)-N-benzylbenzamide] | 31 ± 1.74 |  | HO-1 inhibitory activity (in words) (HO-1 [1]): comparable to the hit compound 4
CN(Cc1ccccc1)C(=O)Cn1ccnc1 [7g, N-Benzyl-2-(1H-imidazol-1-yl)-N-methylacetamide] | 50.6 ± 1.84 | 106 to 111 | 
CN(C(=O)Cn1ccnc1)C(c1ccccc1)C1CCCC1 (stereo not drawn) [7j, N-(Cyclopentyl(phenyl)methyl)-2-(1H-imidazol-1-yl)-N-methylacetamide] | 11.4 ± 0.97 | 134 to 136 | fold less potent than compound 7i (HO-1) (HO-1 [1]): 13 fold
CN(C(=O)Cn1ccnc1)C(c1ccccc1)c1cccc(Br)c1 (stereo not drawn) [7m, N-((3-Bromophenyl)(phenyl)methyl)-2-(1H-imidazol-1-yl)-N-methylacetamide] | 0.9 ± 0.03 | 82 to 83 | cell viability reduction (U87MG cells): more than 30%; cell viability reduction (in words) (A172 cells; all tested concentrations (1, 10, 50 μM)): weak activity; HO-1 vs HO-2 selectivity (in words) (HO-1 [1]): superimposable HO-1 and HO-2 IC50 values; SI (HO-2/HO-1) (HO-1 [1]): 1.2; IC50 (HO-2): 1.1 ± 0.04 µM; HO-1 protein expression (in words) (HO-1 [2]): enhanced its levels
CN(C(=O)Cn1ccnc1)c1ccccc1 [7b, 2-(1H-Imidazol-1-yl)-N-methyl-N-phenylacetamide] |  | 117 to 119 | 
O=C(Cn1ccnc1)Nc1ccc(I)cc1 [7d, 2-(1H-Imidazol-1-yl)-N-(4-iodophenyl)acetamide] | 8.34 ± 0.21 | 222 to 225 | 
O=C(Cn1ccnc1)NCc1ccccc1 [7f] | 57.6 ± 2.38 |  | fold decrease in potency with respect to 4 (HO-1) (HO-1 [1]): 2 fold
